The values below come from patent US20130190289A1, “COMPOUNDS AND METHODS FOR THE TREATMENT OR PREVENTION OF FLAVIVIRUS INFECTIONS” (priority 2010, published 2013).

The subject of data set [1] is HCV replicon (genotype 1b) in Huh7 cell line ET. The experiment in a line: microbe, parasite or virus in culture. It is filed as cell-based, HCV genotype 1b. The note with it: Hepatitis C virus.
In data set [2] the test system is HCV sub-genomic replicon of genotype 1a in replicon cell line W11.8. The experiment in a line: microbe, parasite or virus in culture. The format is cell-based, HCV genotype 1a. The conditions noted are these: Hepatitis C virus. The text has this: This procedure below describes the HCV replicon assay using a Huh7 hepatoma cell line harboring a highly cell culture-adapted replicon (genotype 1b) (hereafter named cell line ET). The ET cells contained the highly cell culture-adapted replicon I389luc-ubi-neo/NS3-3′/5.1 construct that carried, in addition to the neomycin gene, an integrated copy to the firefly luciferase gene (Krieger, N; Lohmann, V; Bartenschlager, R. Enhancement of hepatitis C virus RNA replication by cell culture-adaptive mutations. J. Virol. 2001, 75, 4614-4624). A replicon cell line W11.8, containing the 1a genotype of HCV was also used. These two cell lines (genotype 1b and 1a) allowed measurement of RNA replication and translation by measuring luciferase activity (against genotype 1b) or by measuring the NS5A level using the ELISA assay (against genotype 1a). […] ET cell lines were maintained in cultures at a sub-confluent level (<85%). The culture media used for cell passaging consisted of DMEM (Gibco BRL Laboratories, Mississauga, ON, Canada) supplemented with 10% fetal bovine serum with 1% penicilin/streptomycin, 1% glutamine, 1% sodium pyruvate, 1% non-essential amino acids, and 180 µg/ml of G418 final concentration.
Replicon cell lines W11.8 containing a sub-genomic replicon of genotype 1a was used for the HCV Replicon Cell-Based detection using the ELISA. The RNA replication in presence of different drug concentrations was indirectly measured in these cell lines by the level of NS5A protein content upon drug treatment for four days. The NS5A is a non-structural protein of HCV and is used as marker of HCV replication in this assay.
For the treatment of the cells with the testing drug, Culture medium was removed from the 175 cm^2 T-flask by aspiration. Cell monolayer was rinsed with 10-20 mL of PBS 1× at room temperature. PBS was removed by aspiration. Cells were trypsinized using 3 mL of Trypsin (0.25%)/EDTA (0.1%) solution. Flasks were incubated at 37° C. (incubator) for 7 minutes. Complete medium (9 mL) without G418 is then added. Cell clumps were disrupted by pipetting up and down several times.
The cell suspension was then transferred to a 50 mL Falcon polypropylene tube. Cells were then counted several times using the haemocytometer. Cells were diluted at 50,000 cells/mL with complete DMEM without G418, then transferred into a sterile reservoir. Using a multichannel pipet, approximately 5,000 viable cells (100 μL) were plated per well in a white opaque 96-well microtiter plate. After an incubation period of 2-4 hours at 37° C. in a 5% CO2 incubator, compounds were added at various concentrations.
Drugs were resuspended in DMSO at a stock concentration of 100 mM or 10 mM. […] Then, drugs were diluted at twice the final concentration in the same medium (without G418) described earlier, in sterile 96-deep well plate and according to a particular template (see Appendix). One volume (100 μL) of each drug dilution was then added to each well that contains cells.
Sixteen wells were used as control (0% inhibition) without drug. Eight wells were used as background control (100% inhibition) containing 2 μM (final concentration) of the reference compound. […] Values from 100% inhibited wells were averaged and used as the background value. Cells are further incubated for 4 days at 37° C. in a 5% CO2 incubator.
For the measurement of NS5A protein content, following the incubation time of four days, the media was throwed into an appropriate waste container by inverting the plate. Any residual liquid was removed by tapping gently on absorbent paper several times. The plates were then washed once with 150 μL of PBS per well, and then incubated for 5 minutes at room temperature on a shaker (500 rpm).

A short description of data set [3]: [3H]Thymidine incorporation assay (cell toxicity). The conditions noted are these: human.
Where [4] appears, read: Huh-7, read-out: HCV-Replicon-(Luci-ET) 1b_IC50.
The mark [5] stands for this setting: W11.8, read-out: HCV-Replicon-ELISA-1a IC50.

Where two headings read alike, the source gives them in different places.

Broadly, the CC50 is the concentration giving 50% cytotoxicity. On to `COCC(C(=O)N(C)C)N(C(=O)C1CCC(C)CC1)c1cc(C#CC(C)(C)C)sc1C(=O)O` (single isomer, unassigned) [Compound 21], for which the IC50 in data set [1] (setting [4]) and in data set [2] (setting [5]) was under 100 nM each time. The cytotoxic concentration (CC50) at 72 h in data set [3] was over 100000 nM.
Take `CC1CCC(C(=O)N(c2cc(C#CC(C)(C)C)sc2C(=O)O)[C@H]2CCN(C)C2=O)CC1` (single isomer, unassigned) [Compound 91]: the IC50 in data set [1] (setting [4]) and in data set [2] (setting [5]) was under 100 nM in each case. For the same compound, the 50% cytotoxic concentration (CC50) at 72 h in data set [3] is over 100000 nM.
With `C[C@@H](C(=O)N(C)C)N(c1cc(C#CC(C)(C)C)sc1C(=O)O)C(=O)[C@H]1CC[C@H](C)CC1` [Compound 3, 5-(3,3-Dimethyl-but-1-ynyl)-3-[((S)-1-dimethylcarbamoyl-ethyl)-(trans-4-methyl-cyclohexanecarbonyl)-amino]-thiophene-2-carboxylic acid], the IC50 in data set [1] (setting [4]) and in data set [2] (setting [5]) was under 100 nM each time. This compound also had a CC50 at 72 h in data set [3] of over 100000 nM.
Take `CN(C)C(=O)CN(C(=O)c1ccc(Cl)cc1Cl)c1cc(C#CC(C)(C)C)sc1C(=O)O` [Compound 4, 3-[(2,4-Dichloro-benzoyl)-dimethylcarbamoylmethyl-amino]-5-(3,3-dimethyl-but-1-ynyl)-thiophene-2-carboxylic acid]: the values for the IC50 in data set [1] (setting [4]) and in data set [2] (setting [5]) were under 100 nM and 100 to 1000 nM, respectively. Further, the CC50 at 72 h in data set [3] was 10000 to 100000 nM.
Taken in the same sequence, the figures for `CN(C)C(=O)CN(c1cc(C#CC(C)(C)C)sc1C(=O)O)C(=O)[C@H]1CC[C@H](C)CC1` [Compound 5, 5-(3,3-Dimethyl-but-1-ynyl)-3-[dimethylcarbamoylmethyl-(trans-4-methyl-cyclohexanecarbonyl)-amino]-thiophene-2-carboxylic acid] were under 100 nM, under 100 nM and over 100000 nM.
Taken in the same sequence, the figures for `CC(C)(C)C#Cc1cc(N(CC(=O)N2CCCC2)C(=O)[C@H]2CC[C@H](C)CC2)c(C(=O)O)s1` [Compound 6, 5-(3,3-Dimethyl-but-1-ynyl)-3-[(trans-4-methyl-cyclohexanecarbonyl)-(2-oxo-2-pyrrolidin-1-yl-ethyl)-amino]-thiophene-2-carboxylic acid] were under 100 nM, under 100 nM and over 100000 nM.
For `CC[C@@H](C(=O)N1CCOCC1)N(c1cc(C#CC(C)(C)C)sc1C(=O)O)C(=O)[C@H]1CC[C@H](C)CC1` [Compound 12] the same measures were under 100 nM, under 100 nM and 10000 to 100000 nM.
For the compound `CC[C@@H](C(=O)N(C)C)N(c1cc(C#CC(C)(C)C)sc1C(=O)O)C(=O)[C@H]1CC[C@H](C)CC1` [Compound 13], the IC50 in data set [1] (setting [4]) and in data set [2] (setting [5]) was under 100 nM in each case. Further, the half-maximal cytotoxic concentration (CC50) at 72 h in data set [3] was over 100000 nM.
On to `CC(C)(C)C#Cc1cc(N(CC(=O)N2CCOCC2)C(=O)[C@H]2CC[C@H](C)CC2)c(C(=O)O)s1` [Compound 14], for which the IC50 in data set [1] (setting [4]) and in data set [2] (setting [5]) was under 100 nM throughout. In data set [3], this compound registered a cytotoxic concentration (CC50) at 72 h of over 100000 nM.
In the case of `COCC(C(=O)N(C)C)N(C(=O)C1CCC(C)CC1)c1cc(C#CC(C)C)sc1C(=O)O` (centres unmarked) [Compound 16], the IC50 in data set [1] (setting [4]) and in data set [2] (setting [5]) was under 100 nM each time. Besides, the 50% cytotoxic concentration (CC50) at 72 h in data set [3] is over 100000 nM.
For `CCN(CC)C(=O)CN(c1cc(C#CC(C)(C)C)sc1C(=O)O)C(=O)[C@H]1CC[C@H](C)CC1` [Compound 17], the IC50 in data set [1] (setting [4]) and in data set [2] (setting [5]) was under 100 nM each time. Besides, the CC50 at 72 h in data set [3] is over 100000 nM.
In the case of `COC[C@@H](C(=O)N1CCOCC1)N(C(=O)C1CCC(C)CC1)c1cc(C#CC(C)(C)C)sc1C(=O)O` (some centres unmarked) [Compound 23], the IC50 in data set [1] (setting [4]) and in data set [2] (setting [5]) was under 100 nM each time. Further, the CC50 at 72 h in data set [3] is over 100000 nM.
For `COC[C@@H](C(=O)N1CCCC1)N(C(=O)C1CCC(C)CC1)c1cc(C#CC(C)(C)C)sc1C(=O)O` (some centres unmarked) [Compound 35], the IC50 in data set [1] (setting [4]) and in data set [2] (setting [5]) was under 100 nM throughout. Also, the CC50 at 72 h in data set [3] lay in the range of 10000 to 100000 nM.
As to `CC[C@@H](C(=O)N1CCOC(C)C1)N(C(=O)C1CCC(C)CC1)c1cc(C#CC(C)(C)C)sc1C(=O)O` (some centres unmarked) [Compound 56], the IC50 in data set [1] (setting [4]) and in data set [2] (setting [5]) was under 100 nM throughout. This compound gave a half-maximal cytotoxic concentration (CC50) at 72 h in data set [3] of 10000 to 100000 nM.
Consider `COCC[C@@H](C(=O)N1CCOCC1)N(C(=O)C1CCC(C)CC1)c1cc(C#CC(C)(C)C)sc1C(=O)O` (some centres unmarked) [Compound 61], for which the IC50 in data set [1] (setting [4]) and in data set [2] (setting [5]) was under 100 nM each time. Moreover, the cytotoxic concentration (CC50) at 72 h in data set [3] was over 100000 nM.
As to `CCC[C@@H](C(=O)N1CCOCC1)N(C(=O)C1CCC(C)CC1)c1cc(C#CC(C)(C)C)sc1C(=O)O` (some centres unmarked) [Compound 64], the IC50 in data set [1] (setting [4]) and in data set [2] (setting [5]) was under 100 nM in each case. Moreover, the CC50 at 72 h in data set [3] is 10000 to 100000 nM.
For `CC[C@@H](C(=O)N1CC2CC1CO2)N(c1cc(C#CC(C)(C)C)sc1C(=O)O)C(=O)[C@H]1CC[C@H](C)CC1` (some centres unmarked) [Compound 78], the IC50 in data set [1] (setting [4]) and in data set [2] (setting [5]) was under 100 nM throughout. For the same compound, in data set [3], the CC50 at 72 h is over 100000 nM.
For the compound `CC[C@@H](C(=O)N1CC(OC)C1)N(c1cc(C#CC(C)(C)C)sc1C(=O)O)C(=O)[C@H]1CC[C@H](C)CC1` [Compound 79], the IC50 in data set [1] (setting [4]) and in data set [2] (setting [5]) was under 100 nM each time. Moreover, the CC50 at 72 h in data set [3] is over 100000 nM.
As to `CC1CCC(C(=O)N(c2cc(C#CC(C)(C)C)sc2C(=O)O)C2CCN(C)C2=O)CC1` (centres unmarked) [Compound 83], the IC50 in data set [1] (setting [4]) and in data set [2] (setting [5]) was under 100 nM each time. Also, in data set [3], the CC50 at 72 h was over 100000 nM.
Consider `CC[C@@H](C(=O)N1C[C@@H]2C[C@H]1CO2)N(c1cc(C#CC(C)(C)C)sc1C(=O)O)C(=O)[C@H]1CC[C@H](C)CC1` [Compound 94], for which the IC50 in data set [1] (setting [4]) and in data set [2] (setting [5]) was under 100 nM each time. In data set [3], this compound returned a cytotoxic concentration (CC50) at 72 h of over 100000 nM.
For the compound `CC1CCC(C(=O)N(c2cc(C#CC(C)(C)C)sc2C(=O)O)[C@H]2CCCCN(C)C2=O)CC1` (stereo partly drawn) [Compound 95, 5-(3,3-dimethylbut-1-yn-1-yl)-3-(4-methyl-N—((S)-1-methyl-2-oxoazepan-3-yl)cyclohexanecarboxamido)thiophene-2-carboxylic acid], the IC50 in data set [1] (setting [4]) and in data set [2] (setting [5]) was under 100 nM each time. This compound also gave a 50% cytotoxic concentration (CC50) at 72 h in data set [3] of 10000 to 100000 nM.
In the case of `CC1CCC(C(=O)N(CCC(=O)N(C)C)c2cc(C#CC(C)(C)C)sc2C(=O)O)CC1` (centres unmarked) [Compound 98], the IC50 in data set [1] (setting [4]) is under 100 nM; in data set [2] (setting [5]), 100 to 1000 nM. The compound also came in with a half-maximal cytotoxic concentration (CC50) at 72 h in data set [3] of over 100000 nM.
For `C[C@@H](CN(c1cc(C#CC(C)(C)C)sc1C(=O)O)C(=O)[C@H]1CC[C@H](C)CC1)C(=O)N1CCOCC1` [Compound 108, 5-(3,3-Dimethylbut-1-ynyl)-3-[(trans-4-methylcyclohexanecarbonyl)-[(2S)-2-methyl-3-morpholino-3-oxo-propyl]amino]thiophene-2-carboxylic acid] the same measures were under 100 nM, under 100 nM and over 100000 nM.
For `CC(C)(C)C#Cc1cc(N(C(=O)[C@H]2CC[C@H](C)CC2)[C@H]2CCN([C@H]3CCOC3)C2=O)c(C(=O)O)s1` [Compound 156, 5-(3,3-Dimethylbut-1-ynyl)-3-[(trans-4-methylcyclohexanecaronyl)-[(3S)-2-oxo-1-[(3S)-tetrahydrofuran-3-yl]pyrrolidin-3-yl]amino]thiophene-2-carboxylic acid], the IC50 in data set [1] (Huh-7, 96 h, read-out: HCV-Replicon (Luci-ET)-1b_IC50) was under 100 nM; in data set [2] (W11.8, 96 h, read-out: HCV-Replicon-ELISA-1a IC50), 4 nM.
